In test [1] the test system is CD4 and CD8 T cells. Description: CD4 and CD8 T cell monoculture with MPL, qPCR. Format: cell-based, mouse. To be noted: MPL 5-500 ng/mL, 24 hours. On the procedure:
CD4 and CD8 T cells were isolated from freshly harvested spleens of naïve mice. Spleens were homogenized, filtered (70 μM), and centrifuged. The cell pellet was resuspended in RBC lysis buffer and filtered (70 μM). CD4 and CD8 cells were sorted from total splenocytes using MACS column sorting (Miltenyi Biotec CD8a Cat #130-104-075, CD4 Cat #130-104-454) per manufacturer's instructions.
To determine direct effects of MPL on macrophages, CD4, and CD8 T cells, freshly isolated cells were cultured in 6-well plates containing Alpha MEM media (supplemented with 120 ng/mL M-CSF in the case of macrophages) in the presence of increasing amounts of MPL (5, 20, 100, and 500 ng/mL). […]
(§1) Cells treated in vitro with MPL, RT, or the combination were washed with cold PBS, TRIzol™ reagent (ThermoFisher Scientific Cat #15596026) was added to the plate, and the cells were collected via scraping over ice. […] Extracted RNA was subjected to complementary cDNA synthesis using QuantiTect Reverse Transcription Kit (QIAGEN, Germany, Cat #205314) according to the manufacturer's instructions. Quantitative polymerase chain reaction (qRT-PCR) was performed using Taqman Fast Advanced qPCR Master Mix. […] For data analysis, the Ct values were exported to an Excel file, and fold change normalized to untreated control samples was calculated using the ΔΔCt method. […]
Background: In qPCR the cycle at which signal appears reflects the starting amount.

Test [2] deals with bone marrow derived macrophages. Description: Bone marrow derived macrophage monoculture, qPCR of polarization and activation markers. To be noted: for Arg1 and Nos2 expression: MPL 100 ng/mL. The format is cell-based, mouse. The method, then: Macrophages were isolated from freshly harvested bone marrow as previously described (95-97). Briefly, isolated tibias were flushed with RMPI media and flowthrough was collected and centrifuged. The cell pellet was resuspended in RBC lysis buffer (Biolegend Cat #420302) and filtered (70 μM). Filtered cells were plated in non-tissue culture treated plates in Minimum Essential Medium Eagle-Alpha Modification (Alpha MEM) with Nucleosides supplemented with 10% FBS and 30 ng/mL M-CSF (Biolegend Cat #576408). After 24 hours, the culture supernatant containing macrophages was harvested and plated in tissue culture treated plates in Alpha MEM supplemented with 10% FBS and 120 ng/mL M-CSF.
To determine direct effects of MPL on macrophages, CD4, and CD8 T cells, freshly isolated cells were cultured in 6-well plates containing Alpha MEM media (supplemented with 120 ng/mL M-CSF in the case of macrophages) in the presence of increasing amounts of MPL (5, 20, 100, and 500 ng/mL). After 24 hours cells were harvested, and RNA was isolated for analysis via qPCR.
Cells treated in vitro with MPL, RT, or the combination were washed with cold PBS, TRIzol™ reagent (ThermoFisher Scientific Cat #15596026) was added to the plate, and the cells were collected via scraping over ice. For analysis of tumor tissue, tumors were harvested, and samples were homogenized in TRIzol using a Bead Mill Homogenizer (Bead Ruptor Elite, Omni International Cat #19-040E). For in vitro and in vivo samples, total RNA was extracted using RNeasy Mini Kit (QIAGEN, Germany, Cat #74106) according to the manufacturer's instructions. Extracted RNA was subjected to complementary cDNA synthesis using QuantiTect Reverse Transcription Kit (QIAGEN, Germany, Cat #205314) according to the manufacturer's instructions. Quantitative polymerase chain reaction (qRT-PCR) was performed using Taqman Fast Advanced qPCR Master Mix. Thermal cycling conditions (Quantstudio 6, Applied Biosystems) included the UDG activation at 50° C. for 2 min, followed by Dual-Lock™ DNA polymerase activation stage at 95SC for 2 m followed by 40 cycles of each PCR step (denaturation) 95° C. for is and (annealing/extension) 60° C. for 20s. A melt curve analysis was done to ensure specificity of the corresponding qRT-PCR reactions. For data analysis, the Ct values were exported to an Excel file, and fold change normalized to untreated control samples was calculated using the ΔΔCt method. Hprt, was used as endogenous controls. A complete list of Taqman probes is included as Table 1.
We cultured bone marrow derived macrophages in the presence of increasing amounts of MPL and using qPCR quantified the expression of Arg1 and Nos2, markers of M2 and M1 macrophages, respectively (59).
Macrophages are one of the least sensitive immune cell populations to radiation induced cell death (62). Tumor-associated macrophage populations that receive radiation in this regimen likely survive and are subsequently exposed to MPL delivered intratumorally as part of our treatment strategy. To test whether RT can synergize with MPL to further increase activation of macrophages, we delivered 12 Gy of RT to macrophages in culture and immediately replaced the growth media with fresh media containing 100 ng/mL of MPL, and 24 hours later harvested cells for analysis.

The subject of test [3] is CD4 and CD8 T cells. Description: Co-culture of MPL stimulated macrophages with CD4 and/or CD8 T cells, flow cytometry. The format is cell-based, mouse. The method, then: Bone marrow derived macrophages were plated in 12 well plates (200,000 cells per well) containing Alpha MEM supplemented with 120 ng/mL M-CSF and treated with either 100 ng/mL MPL or PBS control. After 24 hours either CD4, CD8 or both were added (500,000 cells per well) to the culture. CD4 and CD8 cells were harvested 24 hours later and analyzed for activation markers using flow cytometry.
Flow cytometry was performed as previously described (65), using fluorescent beads (UltraComp Beads eBeads, 176 Invitrogen, #01-2222-42) to determine compensation and fluorescence minus one (FMO) methodology to determine gating. For in vivo analysis, tumors and tumor draining lymph nodes were harvested and gently dissociated. For in vitro analysis, nonadherent CD4 and CD8 cells were collected from culture plates and washed with PBS twice. In either case total cells were treated CD16/32 antibody (BioLegend) to prevent non-specific binding. Live cell staining was performed using Ghost Red Dye 780 (Tonbo Biosciences) according to manufacturer's instruction. After live-dead staining, a single cell suspension was labeled with the surface antibodies at 4° C. for 60 min and washed three times using flow buffer (2% FBS+2 mM EDTA in PBS). For intracellular staining, the cells were fixed and stained for internal markers with permeabilization solution according to manufacturer's instructions (BD Cytofix/Cytoperm™). Flow cytometry was performed using an Attune NxT Flow Cytometer (ThermoFisher). Data was analyzed using FlowJo Software.
We hypothesized that MPL may favorably polarize and activate T cells through direct activation of macrophages. To test this, we co-cultured CD8 cells with macrophages stimulated with MPL or vehicle control (PBS) and quantified CD69 expression as a marker of activation. […] To investigate CD4 polarization we co-cultured CD4 cells with macrophages stimulated with MPL or PBS. […] This may partially explain the loss of CD69 expression in CD8 T cells when CD4 T cells were added to the co-culture. We observed similar trends in CXCR3 and CXCR4 expression on CD4+cells, as well as increase in regulatory T cell percentage when CD8 T cells were added to the co-culture (FIGS. 4M-40).
In general terms: Flow cytometry measures light scatter and fluorescence of single cells or particles in a stream.

The test system of test [4] is B78 melanoma. Description: Tumor cytokine multiplex immunoassay. The format is in vivo, mouse. The following applies: tumor lysate, day 15. The method, then: At day 15, tumors were harvested and weighed. Tumor samples (5 μL/mg) were lysed in 20% Cell Lysis Buffer with PMSF (Cell Signaling Technology) and supplemented with Halt Protease and Phosphatase Inhibitor Cocktail (Thermo Scientific). Each tumor was homogenized in bead beater tubes, and the lysate was stored at −80° C. The concentration of 32 cytokines and chemokines in the tumor lysates (MILLIPLEX MAP Mouse Cytokine/Chemokine Magnetic Bead Panel, Millipore) were determined by a multiplex immunoassay following manufacturer's instructions. The MAGPIX System (Millipore) was used to read the multiplex plate. Concentrations were determined using a standard curve and their respective median fluorescence intensity (MFI) readings (Milliplex Analyst, Millipore). The data underwent log and […] transformation followed by unbiased hierarchical clustering.
We next profiled the cytokine repertoire within the irradiated tumor immune microenvironment following MPL treatment, focusing on TLR4 activation, Th polarization, and macrophage polarization given our tumor immune cell infiltration findings.

The test system of test [5] is B78 melanoma. Description: B78 melanoma flank tumor model (tumor growth, survival, complete response, rechallenge). The following applies: RT 12 Gy day 1, C4 200 μg IP days 3, 6, 9, MPL 20 μg IT days 5, 7, 9.
Procedure: Tumor bearing mice received either RT (12 Gy, day 1), RT+anti-CTLA4 (C4, day 3, 6, 9), MPL (20 μg IT injection days 5, 7, 9), RT+C4+MPL, or PBS control.
For our studies, tumors were established intradermally in mice, external beam radiation was delivered, PBS or anti-CTLA-4 were injected intraperitoneally, PBS or MPL were injected intratumorally, and tumor growth and overall survival were recorded. Serum was collected and analyzed for the presence and characterization of anti-tumor antibodies, and the tumor and tumor draining lymph node were collected for immune infiltrate analysis. Mice were randomized to experimental groups/treatment the day before treatment initiation. Generally, experimental groups consisted of at least 5-6 mice, but in some experiments up to 10 were used.
Mice were housed and treated under a protocol (protocol number M005670) approved by the Institutional Animal Care and Use Committee (IACUC) at the University of Wisconsin-Madison. Female C57BL/6, FcγR −/− (FcγR deficient C57BL/6.129P2-Fcer1gtm1Rav N12), and male FVBn mice were purchased at age 6 to 8 weeks from Taconic. Female TBET −/− (B6.129S6-Tbx21tm1Glm/J strain #:004648) were purchased from The Jackson Laboratory. […] Tumor size was determined using calipers and volume approximated as (width2×length)/2. […]
Test [6] has as its system bone marrow derived macrophages. Description: Co-culture of macrophages with tumor cells with or without serum, qPCR. The format is cell-based, mouse. The following applies: MPL 100 ng/mL. The method, then:
For co-culture with tumor cells, bone marrow derived macrophages (harvested from wild type or Fcγ receptor deficient C57BL/6 mice) were plated in 6 well plates (500,000 cells per well) containing Alpha MEM supplemented with 120 ng/mL M-CSF and treated with either 100 ng/ML MPL or PBS control. After 24 hours either B78 melanoma or Myc-CaP cells were added (200,000 cells per well). To test whether serum derived anti-tumor antibodies can activate macrophages, 5 μL of serum obtained from mice bearing B78 tumors rendered disease free was also added to the co-culture. After 24 hours cells were harvested and analyzed for polarization and activation markers using qPCR.
as §1

For the next test, the system named is B cells. Description: B cells cultured in vitro, activation markers by qPCR. Format: cell-based, mouse. On the procedure:
FIGS. 6A-6F. Radiation downregulates TLR4 expression on macrophages and MHC-IT expression on B16 tumor cells and cytotoxic CD4 cells are not generated by combination therapy but B cells are modestly activated with radiation but not MPL or serum. Macrophages cultured in vitro were treated with PBS, anti-CTLA-4 (C4, 5 μg), radiation (RT, 12 Gy) or RT+C4 and expression of TLR4 was quantified using flow cytometry 24 hours following treatment (6A). B16 melanoma cells cultured in vitro were treated with PBS or radiation (RT, 12 Gy) and expression of MHC-II was quantified using flow cytometry 3 days following treatment (6B). B16 tumors were treated with PBS or RT+C4+MPL and expression of MHC-II was quantified using flow cytometry 15 days following treatment (6C). CD4 cells were also harvested and co-cultured with B16 cells that had received either 0 Gy or 12 Gy of RT 7 days prior to coculture and tumor cell killing was quantified using Annexin V staining (6D). B cells cultured in vitro were treated with either PBS, MPL (100 μg), serum from disease free mice, or MPL+serum and activation markers were quantified using qPCR (6E). B cells cultured in vitro were treated with either PBS, C4 (5 μg), RT (12 Gy), or RT+C4 and activation markers were quantified using qPCR (6F). […]

The mark [7] stands for this setting: CD4 co-cultured with MPL stimulated macrophages.

From patent publication US20240173401A1, “Compositions and Methods to Enhance Therapeutic Efficacy of Cancer Therapies” (Wisconsin Alumni Research Foundation, priority 2022, published 2024) come the findings set out here.

On to monophosphoryl lipid A [MPL], for which, in the test with CD4 and CD8 T cells [1], the “Cxcr3 and Cxcr4 expression in naïve splenic CD4 T cells” value is listed as “minimal changes”; the “expression of pro-inflammatory cytokines in CD4 and CD8 cells” value is recorded as “minimal increases”. In test [2] (12 Gy RT then 100 ng/mL MPL, 24 hours, addition of radiation to the MPL), the Fcγ receptor expression result was “further increased expression of these Fcγ receptors”. Besides, the “expression of Ifnβ1 and Nos2” value in test [2] (12 Gy RT then 100 ng/mL MPL, 24 hours, compared to MPL treatment alone) is reported as “further increased”. In addition, the “Arg1 and Nos2 expression” value in test [2] (FcγR −/− macrophages in monoculture) is “significant increases in Arg1 and Nos2 expression”. Further, the “Nos2 expression relative to Arg1” value in test [2] (at the 100 and 200 ng/ml doses) is recorded as “significantly greater expression of Nos2 than Arg1”. The “Arg1 and Nos2 expression (qPCR)” value in test [2] (increasing amounts of MPL (5, 20, 100, 500 ng/mL), 24 hours) was “dose dependent increases in both Arg1 and Nos2”. Further, the “pro-inflammatory compared to anti-inflammatory cytokine expression” value in test [2] (increasing amounts of MPL, 24 hours) is given as “favoring expression of pro-inflammatory cytokines”. The “Arg1 and Nos2 expression” value in test [2] (wild type macrophages in monoculture, 24 hours) is “significant increases in Arg1 and Nos2 expression”. Also, in the test on CD4 and CD8 T cells [3] (setting [7]), the “CXCR3 expression in CD4 cells” value is given as “significant increase”, the “CXCR4 expression in CD4 cells” value is “decrease” and the “percentage of regulatory T cells (CD4+CD25+FOXP3+)” value is reported as “significant increase”. Besides, the “CD69 expression on CD8 T cells” value with CD4 and CD8 T cells [3] (CD8 co-cultured with macrophages stimulated with 100 ng/mL MPL, vs monoculture or unstimulated macrophages) is reported as “significantly increased”. Moreover, in the test with CD4 and CD8 T cells [3] (MPL stimulated macrophages, CD4 cells added to the culture), the “CD69 expression on CD8 cells” value is “no longer observed an increase”. Further, in the test with B78 melanoma [4], the “Macrophage Inflammatory Protein 2 (MIP2, CXCL2)” value is given as “significant increases” and the “keratinocytes-derived chemokine (KC, CXCL1)” value is “significant increases”. This substance also gave a median survival in the test on B78 melanoma [5] of 31 days. The “Arg1 and Nos2 expression” value in test [6] (FcγR −/− macrophages co-cultured with B78 cells) is reported as “significant increase in expression of Nos2 but not Arg1”. The “Arg1 and Nos2 expression” value in test [6] (wild type macrophages co-cultured with B78 cells) was “significant increase in expression of Nos2 but not Arg1”. The B cell activation result with B cells was “no increase in B cell activation”.
